In this test the target is T1, MAL^TIR (Homo sapiens, UniProt P58753).
T1 construct: MAL (residues 79–221); 6xHis; made in house; host or cells: E. coli BL21 (DE3)
Kind of test: T‐Surf phage library (P8 and P3) selection against MAL^TIR, four rounds, NGS read counts. The class given is binding. The conditions noted are these: for Rank (after): P8_MAL: rank by count after grouping; for Rank (before): P8_MAL: rank by count before grouping; for P8_MAL Rank (after) / P8_MAL Rank (before): P8 library; for Population: P8_MAL pool: P8 T-Surf phage library, 4th round of selection against MAL TIR, share of NGS reads. The method in brief:
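P8 and P3 T‐Surf libraries panned against plate-coated TIR domains (5 µg mL^−1), 1 h binding at RT, acid elution and TG1/helper-phage amplification per round. After four rounds, pools were PCR-barcoded and sequenced (NovaSeq, 100 bp paired-end, Phred ≥30); peptides ranked by read counts.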

The mark [1] stands for this setting: selection against MAL, rank by count after grouping.
Setting [2] is: selection against MAL, rank by count before grouping.
The mark [3] stands for this setting: 4R selection against MAL, rank after grouping.
The mark [4] stands for this setting: 4R selection against MAL, rank before grouping.
The mark [5] stands for this setting: selection against MAL TIR, rank by count after grouping.
The mark [6] stands for this setting: selection against MAL TIR, rank by count before grouping.
[7] abbreviates: selection against MAL, rank after grouping.
The mark [8] stands for this setting: selection against MAL, rank before grouping.

T1 sequence (P58753 79-221): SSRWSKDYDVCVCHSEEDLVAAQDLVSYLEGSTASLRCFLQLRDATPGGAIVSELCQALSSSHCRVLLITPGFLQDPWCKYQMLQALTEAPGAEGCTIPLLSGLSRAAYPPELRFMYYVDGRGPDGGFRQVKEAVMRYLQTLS

As for WFWVKLLYALTYRPGI, the “P3_MAL Rank (after)” value (P3 library, 4R selection against MAL, rank after grouping) is recorded as 651. Besides, the “P3_MAL Rank (before)” value (P3 library, 4R selection against MAL, rank before grouping) amounted to 1227.
As for WFYARLVRLILRDPKV, the “Rank (after)” value is 419 and the “Rank (before)” value came to 1135.
For WFYARLVSLLLRDTKV the same measures were 150 and 1132.
Regarding WFYDRIVSLNGRDKQV, the “P8_MAL Rank (after)” value under setting [1] is on record as 711. The “P8_MAL Rank (before)” value under setting [2] amounted to 1142.
As to WFYDRLVRLILRDTKV, the “P8_MAL Rank (after)” value under setting [3] is reported as 647. In addition, the “P8_MAL Rank (before)” value under setting [4] is on record as 1141.
In the case of WFYDRLVSLFLRDPKV, the “Rank (after)” value was 476 and the “Rank (before)” value is 1140.
Take WFYECLVSLILRVTKV: under setting [5], the “P8_MAL Rank (after)” value was found to be 217. In addition, the “P8_MAL Rank (before)” value under setting [6] is listed as 1145.
For WFYEFLVFLILRDTKV, in that order: 251 and 1143.
The sequence WFYEHLVSLILRDTKV had a Population of 0.00371%.
In the case of WFYELLVSLIVRDTKV, the “Rank (after)” value was determined as 394 and the “Rank (before)” value is recorded as 1150.
Regarding WFYELLVSLLLRDTKV, under setting [5], the “P8_MAL Rank (after)” value came out at 221. Also, the “P8_MAL Rank (before)” value under setting [6] was 1149.
Turning to WFYEPLLSMLLRATKV, under setting [1], the “P8_MAL Rank (after)” value is listed as 706. The “P8_MAL Rank (before)” value under setting [2] is 1296.
In the case of WFYEPLVSLILRDTKL, under setting [5], the “P8_MAL Rank (after)” value came to 236. Moreover, the “P8_MAL Rank (before)” value under setting [6] was 1293.
In the case of WFYEPLVSQITRDTKV, the “P8_MAL Rank (after)” value under setting [3] stood at 586. In addition, under setting [4], the “P8_MAL Rank (before)” value is recorded as 1294.
With WFYEPLVSVILPDTKV, the “P8_MAL Rank (after)” value under setting [7] is given as 561. In addition, under setting [8], the “P8_MAL Rank (before)” value is 1292.
For the sequence WFYERFVSQIPRDTNL, the “P8_MAL Rank (after)” value under setting [7] is 550. The “P8_MAL Rank (before)” value under setting [8] turned out to be 1151.
For WFYERLASLILRDTKV, the Population amounted to 0.0034%.
Still for that read-out and setting: the same measure for WFYERLESLILRDTKV: 0.00278%.
With WFYERLFSLILRATKV, the “Rank (after)” value was determined as 148 and the “Rank (before)” value amounted to 1160.
With WFYERLGSLMLRDTNV, the “P8_MAL Rank (after)” value under setting [7] is given as 555. Moreover, the “P8_MAL Rank (before)” value under setting [8] was 1247.
As to WFYERLLNLILRDTKV, the “Rank (after)” value was determined as 96 and the “Rank (before)” value was found to be 1250.
Consider WFYERLLSLILRDTKV, for which the Population is 0.00278%.
Turning to WFYERLLSLVLRDTKV, the “Rank (after)” value is given as 176 and the “Rank (before)” value is 1248.
For WFYERLLSRILRDTKV, in that order: 119 and 1249.
Take WFYERLLTVIDRDTEV: the “P8_MAL Rank (after)” value under setting [7] was 500. Besides, the “P8_MAL Rank (before)” value under setting [8] was found to be 1159.
Regarding WFYERLVCLILRDIKV, the “Rank (after)” value is reported as 465 and the “Rank (before)” value is 1171.
For WFYERLVCLLLRDSKV the same measures were 458 and 1279.
WFYERLVGLILRDTKV: the Population was found to be 0.0034%.
Turning to WFYERLVGLILRETEG, the “P8_MAL Rank (after)” value under setting [3] is 660. In addition, the “P8_MAL Rank (before)” value under setting [4] turned out to be 1163.
In the case of WFYERLVGLIMRDTKV, the “Rank (after)” value is 129 and the “Rank (before)” value was determined as 1172.
In the case of WFYERLVILILRDTKV, the Population is reported as 0.00278%.
As to WFYERLVILVLRDTKG, the “P8_MAL Rank (after)” value under setting [5] amounted to 250. Moreover, the “P8_MAL Rank (before)” value under setting [6] amounted to 1179.
Consider WFYERLVKLVLRDTKV, for which the “Rank (after)” value is reported as 166 and the “Rank (before)” value is 1244.
For WFYERLVNLILRDTIV, the “P8_MAL Rank (after)” value under setting [3] was determined as 668. The “P8_MAL Rank (before)” value under setting [4] is given as 1241.
Take WFYERLVNLNLRDTKV: the “Rank (after)” value is 140 and the “Rank (before)” value turned out to be 1242.
For WFYERLVRLFLRDTKV, the “Rank (after)” value is 446 and the “Rank (before)” value is given as 1237.
WFYERLVRLILRDNKV: under setting [3], the “P8_MAL Rank (after)” value is on record as 607. Further, the “P8_MAL Rank (before)” value under setting [4] is reported as 1280.
WFYERLVRLILRDTKA: the “Rank (after)” value turned out to be 174 and the “Rank (before)” value was found to be 1185.
Turning to WFYERLVRLILRDTKV, the Population was 0.00309%.
For the sequence WFYERLVRLILSDTKV, the “P8_MAL Rank (after)” value under setting [7] was found to be 549. Further, the “P8_MAL Rank (before)” value under setting [8] is 1175.
WFYERLVSHMLRDTKV: the “Rank (after)” value is 179 and the “Rank (before)” value turned out to be 1232.
In turn, WFYERLVSLFLRDTKV returned a Population of 0.00371%.
As to WFYERLVSLILPVTKV, under setting [5], the “P8_MAL Rank (after)” value worked out at 229. The “P8_MAL Rank (before)” value under setting [6] was 1264.
On to WFYERLVSLILRATQV, for which the “Rank (after)” value is on record as 474 and the “Rank (before)” value worked out at 1228.
With WFYERLVSLILRDSKV, the Population is 0.00309%.
On the same count and under the same terms, in the case of WFYERLVSLILRDTIV it was 0.00309%; in that of WFYERLVSLILRDTKE, 0.00309%.
Still for that read-out and setting: in the case of WFYERLVSLILRDTKM it was 0.00402%; in that of WFYERLVSLILRDTKX, 0.0034%.
Turning to WFYERLVSLILRHTKL, the “Rank (after)” value was found to be 187 and the “Rank (before)” value is listed as 1155.
For WFYERLVSLILRIPK, the “Rank (after)” value came out at 188 and the “Rank (before)” value is reported as 742.
Turning to WFYERLVSLILRNTKV, the Population is on record as 0.00309%.
For WFYERLVSLILRNTRV, the “Rank (after)” value was 118 and the “Rank (before)” value is on record as 1290.
Take WFYERLVSLILRVTKI: under setting [7], the “P8_MAL Rank (after)” value is listed as 553. Under setting [8], the “P8_MAL Rank (before)” value came out at 1199.
Sequence WFYERLVSLILRVTKV came in with a Population of 0.00309%.
Take WFYERLVSLILRYTKE: the “P8_MAL Rank (after)” value under setting [5] is 222. The “P8_MAL Rank (before)” value under setting [6] came out at 1197.
On to WFYERLVSLILRYTKV, for which the Population is on record as 0.00309%.
As to WFYERLVSLIMRATKV, the “Rank (after)” value is on record as 117 and the “Rank (before)” value is recorded as 1222.
For WFYERLVSLIMRDNIV, under setting [3], the “P8_MAL Rank (after)” value worked out at 634. For the same sequence, the “P8_MAL Rank (before)” value under setting [4] turned out to be 1183.
Consider WFYERLVSLIQRDTTV, for which the “P8_MAL Rank (after)” value under setting [5] is 212. Also, the “P8_MAL Rank (before)” value under setting [6] stood at 1278.
Turning to WFYERLVSLIRRDIKV, the “P8_MAL Rank (after)” value under setting [1] turned out to be 694. Besides, under setting [2], the “P8_MAL Rank (before)” value worked out at 1219.
With WFYERLVSLIRRDTQV, the “Rank (after)” value worked out at 106 and the “Rank (before)” value is recorded as 1220.
Regarding WFYERLVSLLLRATKV, the “Rank (after)” value was found to be 170 and the “Rank (before)” value is 1156.
Sequence WFYERLVSLLLRDTKV had a Population of 0.00309%.
With WFYERLVSLLMRDTKV, the “Rank (after)” value is given as 152 and the “Rank (before)” value was 1193.
For WFYERLVSLMLRDKKV the same measures were 172 and 1269.
Take WFYERLVSLMLRNTKV: the “P8_MAL Rank (after)” value under setting [7] was 540. Besides, the “P8_MAL Rank (before)” value under setting [8] came out at 1225.
For WFYERLVSMITRDTNV, in that order: 486 and 1271.
Turning to WFYERLVSMVLRDTKV, the “Rank (after)” value stood at 406 and the “Rank (before)” value was found to be 1287.
On to WFYERMVRLILRDTKV, for which the “P8_MAL Rank (after)” value under setting [5] came to 247. Moreover, the “P8_MAL Rank (before)” value under setting [6] was found to be 1291.

For the origin of these results see article PMC11714206, “Massively Parallel Screening of Toll/Interleukin‐1 Receptor (TIR)‐Derived Peptides Reveals Multiple Toll‐Like Receptors (TLRs)‐Targeting Immunomodulatory Peptides” (Advanced Science, 2024).
